# Experimental data as given in US10202413B2, “Neuroactive enantiomeric 15-, 16- and 17-substituted steroids as modulators for GABA type-A receptors” (priority 2013, dated 2019).
# Where two headings read alike, the source gives them in different places. Marks after values point to notes of the source that are not given here.
# Tests used:
# [1] = target: picrotoxin binding site on GABAA receptors; test: [35S]-TBPS displacement (inhibition of [35S]-TBPS binding); conditions: non-competitive displacement of [35S]-TBPS; ± standard error of the mean
# Protocol: The IC50 values for the compounds of the examples as non-competitive displacers of [^35S]-TBPS from the picrotoxin binding site on GABAA receptors are reported in Table 1.
# Results presented are from duplicate experiments performed in triplicate. Error limits are calculated as standard error of the mean. Methods used are known in the art (see, e.g., Jiang, et al., Neurosteroid analogues. 9. Conformationally constrained pregnanes: structure-activity studies of 13,24-cyclo-18,21-dinorcholane analogues of the GABA modulatory and anesthetic steroids (3α,5α)- and (3α,5β)-3-hydroxypregnan-20-one. J. Med. Chem. 2003, 46, 5334-5348).
# [2] = tested on: Tadpole; test: Tadpole loss of righting (LRR) and loss of swimming (LSR) reflexes; assay type: in vivo; conditions: for EC50: ± SEM; for tadpoles that lost LRR / tadpoles that lost LSR: concentration of 3 μM, number of 10 tadpoles
# Description: Table 3 discloses the anesthetic effects of the compounds of the present disclosure. In particular, the anesthetic effect of the compounds of the present disclosure on Loss of Righting Reflex (LRR) and Loss of Swimming Reflex (LSR).
# Methods used are known in the art (see, e.g., Jiang, et al., Neurosteroid analogues. 9. Conformationally constrained pregnanes: structure-activity studies of 13,24-cyclo-18,21-dinorcholane analogues of the GABA modulatory and anesthetic steroids (3α,5α)- and (3α,5β)-3-hydroxypregnan-20-one. J. Med. Chem. 2003, 46, 5334-5348). Error limits are calculated as standard error of the mean (N=10 or more animals at each of five or more different concentrations).
# [3] = tested on: mice; test: Mouse duration of anesthesia (LRR) after tail vein injection; assay type: in vivo
# Protocol: The compounds were dissolved in 22.5% aqueous 2-(hydroxypropyl)-β-cyclodextrin. For compound 28, serial dilutions of a 8 mg/kg stock solution with 0.9% saline were made to obtain the lower doses tested.
# At a dose of 8 mg/kg, compound MQ-35 caused LRR of about 3 minutes and at a dose of 16 mg/kg duration of LRR was increased to about 7 minutes.
# At 4 mg/kg, LRR induced by KK-122 lasted about 5 minutes and at a dose of 8 mg/kg LRR lasted for about 9 minutes. For all three compounds, the onset of anesthesia was immediate (i.e., less than 30 seconds) and recovery was characterized by a rapid progression over 1-2 minutes from an initial return of leg movement followed by righting and subsequent walking around the cage.
# [4] = target: T1, rat α1β2γ2L type GABAA receptors expressed in Xenopus laevis oocytes (Rattus norvegicus, UniProt P18508+P62813+P63138, INS375LLRMFSFK); test: Oocyte electrophysiology: potentiation of chloride currents mediated by 2 μM GABA, and direct gating; assay type: cell-based; conditions: ± SEM (N≥4); for ratio of currents measured in the presence/absence of added compound, 0.1 μM: 0.1 μM compound; for ratio of currents measured in the presence/absence of added compound, 0.1 μM / ratio of currents measured in the presence/absence of added compound, 1.0 μM / ratio of currents measured in the presence/absence of added compound, 10 μM: 2 μM GABA; for ratio of currents measured in the presence/absence of added compound, 1.0 μM: 1.0 μM compound; for ratio of currents measured in the presence/absence of added compound, 10 μM: 10 μM compound; for (gating) 10 μM: ratio of compound only current/GABA current: direct current gated by 10 μM compound in the absence of GABA
# T1 construct: expressed in transfected cells; host or cells: Xenopus laevis oocytes
# Protocol: The compounds of the present disclosure were evaluated for the ability to potentiate chloride currents mediated by 2 μM GABA at rat α1β2γ2L type GABAA receptors expressed in Xenopus laevis oocytes and the results are shown in Table 2.
# The GABA concentration used for the control response was 2 μM. Each compound was evaluated on at least four different oocytes at the concentrations indicated, and the results reported are the ratio of currents measured in the presence/absence of added compound. Gating represents direct current gated by 10 μM compound in the absence of GABA, and this current is reported as the ratio of compound only current/[…] current. Error limits are calculated as standard error of the mean (N≥4). Receptor expression and whole-cell and single-channel recordings were carried out as described previously (see Jiang, et al., Neurosteroid analogues. 9. Conformationally constrained pregnanes: structure-activity studies of 13,24-cyclo-18,21-dinorcholane analogues of the GABA modulatory and anesthetic steroids (3α,5α)- and (3α,5β)-3-hydroxypregnan-20-one. J. Med. Chem. 2003, 46, 5334-5348).
# [5] = loss of righting reflex, read-out: Tadpole LRR EC50
# [6] = loss of swimming reflex, read-out: Tadpole LSR EC50
# T1 sequence (P62813 28-455, stated change not applied): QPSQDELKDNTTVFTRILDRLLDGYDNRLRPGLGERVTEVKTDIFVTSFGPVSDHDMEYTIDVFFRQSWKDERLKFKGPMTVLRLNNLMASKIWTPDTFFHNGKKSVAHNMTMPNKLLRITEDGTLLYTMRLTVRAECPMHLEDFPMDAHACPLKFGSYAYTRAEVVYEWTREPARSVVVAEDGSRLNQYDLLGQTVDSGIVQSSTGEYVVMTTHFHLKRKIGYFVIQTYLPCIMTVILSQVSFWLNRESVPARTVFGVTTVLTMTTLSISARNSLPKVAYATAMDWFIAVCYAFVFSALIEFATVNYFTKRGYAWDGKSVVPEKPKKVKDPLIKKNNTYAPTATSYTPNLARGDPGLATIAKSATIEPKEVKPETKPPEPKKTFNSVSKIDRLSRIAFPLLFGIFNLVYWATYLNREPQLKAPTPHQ
# T1 sequence (P63138 26-474, stated change not applied): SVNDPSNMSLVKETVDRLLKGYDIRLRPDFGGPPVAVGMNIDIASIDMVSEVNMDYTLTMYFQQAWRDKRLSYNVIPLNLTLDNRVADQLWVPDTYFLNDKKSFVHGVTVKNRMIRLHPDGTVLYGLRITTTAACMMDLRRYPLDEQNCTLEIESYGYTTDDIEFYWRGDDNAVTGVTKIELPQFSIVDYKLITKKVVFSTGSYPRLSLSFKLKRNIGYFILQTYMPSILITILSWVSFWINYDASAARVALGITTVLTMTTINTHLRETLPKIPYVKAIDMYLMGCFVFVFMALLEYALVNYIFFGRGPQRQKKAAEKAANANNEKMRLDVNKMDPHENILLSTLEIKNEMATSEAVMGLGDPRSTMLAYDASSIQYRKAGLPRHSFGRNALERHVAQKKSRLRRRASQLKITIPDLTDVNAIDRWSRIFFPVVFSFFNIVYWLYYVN
# T1 sequence (P18508 with tags, fused parts or gaps INS375LLRMFSFK): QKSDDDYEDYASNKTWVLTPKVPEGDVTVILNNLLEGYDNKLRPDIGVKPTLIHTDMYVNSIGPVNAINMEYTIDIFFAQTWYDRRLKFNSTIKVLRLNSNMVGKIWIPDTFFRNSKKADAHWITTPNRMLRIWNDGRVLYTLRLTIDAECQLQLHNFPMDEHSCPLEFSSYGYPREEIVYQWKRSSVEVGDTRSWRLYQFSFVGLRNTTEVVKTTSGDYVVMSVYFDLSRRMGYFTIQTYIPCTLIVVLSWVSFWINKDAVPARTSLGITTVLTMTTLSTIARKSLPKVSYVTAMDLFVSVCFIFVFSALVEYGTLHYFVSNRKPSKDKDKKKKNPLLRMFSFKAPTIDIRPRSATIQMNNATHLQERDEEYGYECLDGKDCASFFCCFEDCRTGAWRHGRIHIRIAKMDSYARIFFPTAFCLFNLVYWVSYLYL
Structure (SMILES),IC50 [1] [nM],"EC50 [2, 5] [nM]","EC50 [2, 6] [nM]",duration of anesthesia (LRR) ([3]; 1 mg/kg),duration of anesthesia (LRR) ([3]; 4 mg/kg),duration of anesthesia (LRR) ([3]; 8 mg/kg),duration of anesthesia (LRR) ([3]; threshold dose of 2 mg/kg),melting point [°C],"ratio of currents measured in the presence/absence of added compound, 0.1 μM [4]","ratio of currents measured in the presence/absence of added compound, 1.0 μM [4]","ratio of currents measured in the presence/absence of added compound, 10 μM [4]",(gating) 10 μM: ratio of compound only current/GABA current [4],tadpoles that lost LRR [2],tadpoles that lost LSR [2],duration of anesthesia (LRR) ([3]; 16 mg/kg)
"CO[C@H]1[C@H]2CC[C@@H]3[C@H]4CC(=O)C[C@]4(C)CC[C@H]3[C@]2(C)CC[C@@H]1O [KK-122, (3β,4α,5β,8α,9β,10α,3α,14β)-3-Hydroxy-4-methoxyandrostan-16-one]",83 ± 11,340 ± 400,1730 ± 30,no LRR was observed,about 5 minutes,about 9 minutes,about 1 minute,198 to 200,1.41 ± 0.07,6.48 ± 0.40,16.00 ± 2.21,0.08 ± 0.03,,,
"C[C@@]12CC[C@@H]3[C@H](CC[C@H]4C[C@@H](O)CC[C@]43C)[C@H]1C[C@@H](C#N)C2 [KK-137, (3β,5α,8α,9β,10α,13α,14β,16α)-3-Hydroxyandrost-16-carbonitrile]",22 ± 4,130,550 ± 10,,,,,155 to 157,2.32 ± 0.17,7.08 ± 0.54,10.17 ± 0.68,−0.04 ± 0.08,,,
"C[C@@]12CC[C@@H]3[C@H](CC[C@@H]4C[C@@H](O)CC[C@]43C)[C@H]1CC(=CC#N)C2 [KK-138, 2-[(3β,5β,8α,9β,10α,13α,14β)-3-Hydroxyandrostan-16-ylidene]-acetonitrile]",32 ± 3,140,870,,,,,162 to 172,1.63 ± 0.23,5.87 ± 1.65,10.16 ± 3.18,0.14 ± 0.06,,,
"C[C@@]12CC[C@H](O)C[C@H]1CC[C@H]1[C@H]2CC[C@@]2(C)C=C(C#N)C[C@H]12 [KK-141, (3β,5β,8α,9β,10α,13α,14β)-3-Hydroxyandrost-16-ene-16-carbonitrile]",154 ± 19,,,,,,,247 to 249,1.08 ± 0.11,1.35 ± 0.08,1.58 ± 0.13,0.08 ± 0.06,5/10^b,0/10^c,
"C[C@@]12CC[C@@H]3[C@H](CC[C@@H]4C[C@@H](O)CC[C@]43C)[C@H]1C[C@@H](C#N)C2 [KK-142, (3β,5β,8α,9β,10α,13α,14β,16α)-3-Hydroxyandrost-16-carbonitrile]",29 ± 3,,,,,,,206 to 208,2.20 ± 0.20,8.83 ± 3.12,13.32 ± 4.54,0.03 ± 0.01,10/10^a,10/10^a,
"C[C@@]12CC[C@@H]3[C@H](CC[C@@H]4C[C@@H](O)CC[C@]43C)[C@H]1CC(=O)C2 [MQ-35, (3β,5β,8α,9β,10α,13α,14β)-3-Hydroxyandrostan-16-one]",81 ± 8,550 ± 90,1730 ± 40,,,about 3 minutes,,152 to 153,1.42 ± 0.02,7.72 ± 0.39,34.70 ± 1.69,0.15 ± 0.04,,,about 7 minutes
"CO[C@H]1CC[C@]2(C)CC[C@@H]3[C@H](CC[C@@H]4C[C@@H](O)CC[C@]43C)[C@@H]12 [MQ-117, (3β,5β,8α,9β,10α,13α,14β,15α)-15-Methxoyandrostan-3-ol]",19 ± 8,79 ± 3,330,,,,,137 to 139,3.43 ± 0.29,11.10 ± 1.16,26.20 ± 2.91,0.06 ± 0.02,,,
"C[C@@]12CC[C@@H]3[C@H](CC(=O)[C@@H]4C[C@@H](O)CC[C@@]34C)[C@H]1CC(=O)C2 [MQ-124, (3β,5β,8α,9β,10α,13α,14β)-3-Hydroxyandrostane-6,16-dione]",8950 ± 1860,> 10000,> 10000,,,,,205 to 207,0.68 ± 0.03,0.85 ± 0.03,1.57 ± 0.05,−0.01 ± 0,,,
"CO[C@@H]1C[C@@H]2[C@H]3C[C@H](OC)[C@@H]4C[C@@H](O)CC[C@@]4(C)[C@@H]3CC[C@@]2(C)C1 [MQ-125, (3β,5β,6α,8α,9β,10α,13α,14β,16α)-6,16-Dimethoxyandrostan3-ol]",121 ± 10,,,,,,,127 to 129,1.19 ± 0.18,5.02 ± 0.40,14.08 ± 2.23,0.43 ± 0.41,10/10^a,10/10^a,
"CC(=O)[C@H]1CC[C@H]2[C@@H]3CC[C@H]4C[C@H](O)CC[C@]4(C)[C@H]3C(=O)C[C@]12C [alphaxalone, reference compound]",,,,,,,,,,,,,,,about 4 minutes
